From ChEMBL document CHEMBL1150478, “Synthesis and in vitro antiandrogenic activity of 17-hydroxy-17-(-hydroxy/haloalkyn-1-yl)-4-methyl-4-aza-3-oxo-5-androstan-(1-ene)-3-ones” (Bioorg Med Chem Lett, 1995) come the findings set out here.

The term IC50 denotes the point on the concentration scale where inhibition reaches its midpoint. Lower therefore signals higher potency.

Experiment [1] is described as follows: Concentration required for inhibition of 5-alpha-Dihydrotestosterone (DHT) stimulated shionogi cell proliferation was determined. The experiment is classed as functional. Conditions: Mus musculus.
Experiment [2] can be described thus: Concentration required for inhibition of 5-alpha-Dihydrotestosterone (DHT) stimulated shionogi cell proliferation was determined; No activity was observed at 1 uM. The experiment is classed as functional. The conditions noted are these: Mus musculus.

Regarding `CN1C(=O)CC[C@]2(C)C3CC[C@@]4(C)C(CC[C@@]4(O)C#CCCCBr)C3CCC12` (some centres not stated), in experiment [1], the IC50 stood at 325 nM.

In turn, `CN1C(=O)CC[C@]2(C)C3CC[C@@]4(C)C(CC[C@@]4(O)C#CCCBr)C3CCC12` (some centres not stated) gave an IC50 in experiment [1] of 279 nM.

The compound `CN1C(=O)C=C[C@]2(C)C3CC[C@@]4(C)C(CC[C@@]4(O)C#CCCO)C3CCC12` (some centres not stated) came in with an IC50 in experiment [2] of more than 1000 nM. `CN1C(=O)CC[C@]2(C)C3CC[C@@]4(C)C(CC[C@@]4(O)C#CCCCO)C3CCC12` (some centres not stated): the concentration for half-maximal inhibition (IC50) in experiment [2] was more than 1000 nM. `CN1C(=O)C=C[C@]2(C)C3CC[C@@]4(C)C(CC[C@@]4(O)C#CCCCI)C3CCC12` (some centres not stated) came in with a half-inhibitory concentration (IC50) in experiment [1] of 179 nM. In turn, `CN1C(=O)CC[C@]2(C)C3CC[C@@]4(C)C(CC[C@@]4(O)C#CCCCCl)C3CCC12` (some centres not stated) came in with an IC50 in experiment [1] of 129 nM. With `CN1C(=O)CC[C@]2(C)C3CC[C@@]4(C)C(CC[C@@]4(O)C#CCCI)C3CCC12` (some centres not stated), in experiment [1], the half-maximal inhibitory concentration (IC50) is 160 nM. In experiment [1], `CN1C(=O)CC[C@]2(C)C3CC[C@@]4(C)C(CC[C@@]4(O)C#CCCCI)C3CCC12` (some centres not stated) registered an IC50 of 328 nM. Same read-out and setting: the result for `CN1C(=O)C=C[C@]2(C)C3CC[C@@]4(C)C(CC[C@@]4(O)C#CCCCCl)C3CCC12` (some centres not stated) reads 67.2 nM; that for `CN1C(=O)C=C[C@]2(C)C3CC[C@@]4(C)C(CC[C@@]4(O)C#CCCCBr)C3CCC12` (some centres not stated), 149 nM; that for `CN1C(=O)C=C[C@]2(C)C3CC[C@@]4(C)C(CC[C@@]4(O)C#CCCBr)C3CCC12` (some centres not stated), 142 nM. On to `CN1C(=O)C=C[C@]2(C)C3CC[C@@]4(C)C(CC[C@@]4(O)C#CCCI)C3CCC12` (some centres not stated), for which the half-inhibitory concentration (IC50) in experiment [1] was 96.8 nM. In the case of `CN1C(=O)C=C[C@]2(C)C3CC[C@@]4(C)C(CC[C@@]4(O)C#CCCCO)C3CCC12` (some centres not stated), in experiment [2], the 50% inhibitory concentration (IC50) was more than 1000 nM. Consider `CN1C(=O)CC[C@]2(C)C3CC[C@@]4(C)C(CC[C@@]4(O)C#CCCO)C3CCC12` (some centres not stated), for which the IC50 in experiment [2] is more than 1000 nM. For the compound `CN1C(=O)C=C[C@]2(C)C3CC[C@@]4(C)C(CC[C@@]4(O)C#CCCCl)C3CCC12` (some centres not stated), it took 94.5 nM to reach half-maximal inhibition in experiment [1] (IC50).

In turn, `CN1C(=O)CC[C@]2(C)C3CC[C@@]4(C)C(CC[C@@]4(O)C#CCCCl)C3CCC12` (some centres not stated) had an IC50 in experiment [1] of 250 nM. On to `CC(C)(O)C(=O)Nc1ccc([N+](=O)[O-])c(C(F)(F)F)c1` [HYDROXYFLUTAMIDE], for which the IC50 in experiment [1] was determined as 52.5 nM.
